Assay results published in patent US10479789B2, “Pyrido[1,2-A]pyrimidone analog, crystal form thereof, intermediate thereof and preparation method therefor” (Chia Tai Tianqing Pharmaceutical Group Co., Ltd., priority 2015, dated 2019).

What was measured:
MCF-7 cells = assay: In vitro test of cell activity, insulin-stimulated MCF-7 cells, ELISA-One; type: cell-based; settings: Homo sapiens, MCF7, 2 hours compound, insulin 30 minutes
Experimental: 1) MCF-7 cells were inoculated at the density of 2.5×10^4 cells/well into 96-well plates (the culture medium used should be a complete culture medium containing 10% FBS).
2) On the next day, the medium in each well was drawn out.
3) Insulin was dissolved in a culture medium without serum, added to the cultured cells and incubated for 30 minutes, wherein the final concentration of insulin was 10 mg/mL.
4) A lysis solution was prepared according to the following method during the waiting period for the reaction: • a) Enhancer solution was removed from the refrigerator to melt in advance. • b) Enhancer solution was diluted 10-fold with the 5× Lysis Buffer to give a concentrated lysis solution. • c) The concentrated lysis solution was diluted 5-fold with double distilled water to give the lysis solution.
5) The medium in each well was completely removed and each well was quickly rinsed with PBS once.
6) 150 μL of the freshly prepared lysis solution was added to each well and shaken at room temperature for 10 min.
7) After confirming that all cells were detached, the lysis solution together with cell debris was transferred into a 1.5 mL tube. […]
9) The number of strips of ELISA-one micro-well plate that is required was calculated. […]
15) The corresponding ELISA-One filter group was assembled and used to read the fluorescence signal intensity.

mTOR = molecular target: T1, mTOR (Homo sapiens, UniProt P42345); assay: mTOR kinase activity, 32P-ATP P81 filter-binding method; type: biochemical; settings: 3 μM 4EBP1 and 10 μM ATP; read-out: IC50 of mTOR enzyme activity
T1 construct: N-terminal GST tag (amino acid 1360-2549, molecular weight=163.9 kDa); GST (N); host or cells: insect cells
T1 sequence (P42345 1360-2549): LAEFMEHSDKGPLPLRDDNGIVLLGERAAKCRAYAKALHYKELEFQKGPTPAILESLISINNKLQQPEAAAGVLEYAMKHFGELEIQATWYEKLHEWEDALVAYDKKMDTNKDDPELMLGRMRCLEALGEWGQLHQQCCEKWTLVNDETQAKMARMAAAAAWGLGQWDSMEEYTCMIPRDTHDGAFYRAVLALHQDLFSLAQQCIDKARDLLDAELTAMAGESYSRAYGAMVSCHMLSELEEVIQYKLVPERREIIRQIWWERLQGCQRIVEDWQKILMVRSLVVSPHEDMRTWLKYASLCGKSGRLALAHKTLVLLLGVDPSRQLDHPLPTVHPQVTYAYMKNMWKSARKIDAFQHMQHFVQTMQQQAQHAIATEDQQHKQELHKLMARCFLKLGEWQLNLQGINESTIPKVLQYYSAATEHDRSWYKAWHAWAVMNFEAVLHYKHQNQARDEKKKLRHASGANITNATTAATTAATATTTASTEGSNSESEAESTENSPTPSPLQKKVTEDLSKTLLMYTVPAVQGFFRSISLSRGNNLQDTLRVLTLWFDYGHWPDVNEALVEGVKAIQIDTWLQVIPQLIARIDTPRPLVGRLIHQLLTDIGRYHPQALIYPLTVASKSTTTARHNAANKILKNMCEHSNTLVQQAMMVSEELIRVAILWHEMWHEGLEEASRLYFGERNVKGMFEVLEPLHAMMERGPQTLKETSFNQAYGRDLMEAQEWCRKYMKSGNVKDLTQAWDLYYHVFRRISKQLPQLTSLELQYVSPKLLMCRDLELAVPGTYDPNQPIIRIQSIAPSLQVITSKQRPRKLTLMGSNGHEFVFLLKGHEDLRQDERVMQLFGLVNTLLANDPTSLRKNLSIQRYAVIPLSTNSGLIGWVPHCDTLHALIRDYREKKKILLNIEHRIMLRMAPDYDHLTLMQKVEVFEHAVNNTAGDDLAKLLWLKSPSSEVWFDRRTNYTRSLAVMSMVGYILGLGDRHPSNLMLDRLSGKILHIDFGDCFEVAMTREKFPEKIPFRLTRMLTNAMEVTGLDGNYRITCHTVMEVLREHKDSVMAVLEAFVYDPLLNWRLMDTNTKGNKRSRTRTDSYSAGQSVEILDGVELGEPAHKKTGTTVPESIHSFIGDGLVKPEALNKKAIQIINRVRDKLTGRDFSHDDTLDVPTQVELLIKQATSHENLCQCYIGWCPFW
Experimental: The activity of the test compounds of the present invention on mTOR kinase was tested by the test method below.
Reaction Buffer: 20 mM Hepes (pH 7.5), 10 mM MgCl2, 2 mM MnCl2, 1 mM EGTA, 0.02% Brij35, 0.02 mg/mL BSA, 0.1 mM Na3VO4, 2 mM DTT, 2% DMSO.
Enzyme for reaction: humanized recombinant mTOR fragment with a N-terminal GST tag (amino acid 1360-2549, molecular weight=163.9 kDa), expressed in insect cells.
Reaction Substrate: humanized recombinant full-length 4EBP1 with a N-terminal His tag (molecular weight=13.6 kDa), expressed in bacteria;
Reaction conditions: 3 μM 4EBP1 and 10 μM ATP.
1. The reaction substrate and other reaction factors were added to the freshly prepared reaction buffer.
2. The kinase was added to the substrate reaction and gently mixed.
3. The compound dissolved in 100% DMSO was transferred into the kinase reaction solution using Acoustic technology (Echo 550; nanoliter rang) and then incubated at room temperature for 20 min.
4. An appropriate concentration of ^32P-ATP was add to the reaction system.
5. It was incubated at room temperature for 2 hours.
6. Kinase activity was detected by the P81 filter-binding method.

IC50 (MCF-7 cells): ≤ 0.05 µM
IC50 (mTOR): > 0.2 µM
Compound: COc1ncc(-c2ccc3ncc(OCCN(C)C)c(=O)n3c2)cc1NS(=O)(=O)c1ccc(F)cc1Cl [Compound 1]
